According to US8716333B2, “Process and compounds for the manufacture of oseltamivir and analogs thereof, and new antiviral agents” (Brock University, priority 2009, dated 2014):

Experiments:
Neu1 sialidase = target: T1, Neu1 sialidase (Mus musculus, UniProt O35657); assay: LPS-induced Neu1 sialidase activity in live RAW-blue macrophage cells (4MU-NeuAc fluorescence); assay type: cell-based; conditions: for IC50: LPS-induced sialidase activity on the cell surface of live RAW-blue macrophage cells, substrate 4MU-NeuAc, fluorescence at 1-2 min
T1 construct: endogenous in cells; host or cells: RAW-blue macrophage cells
Protocol: Inhibitory Potency of Compounds of the Application on Lipopolysaccharide (LPS)-Induced Neu1 Sialidase Activity in Live Raw-Blue Macrophage Cells
Compounds of the application were assessed for antiviral activity using an assay that detects sialidase activity on the surface of viable cells. […] Fluorescent images were taken at 1-2 minutes after adding the substrate using epi-fluorescent microscopy (40× objective). The mean fluorescence surrounding the cells for each of the images was measured using Image J software.

| IC50 (Neu1 sialidase) [nM] | Compound | melting point [°C] | other results |
| --- | --- | --- | --- |
|  | CCOC(=O)C1=C[C@@H](OC(CC)CC)[C@H](NC(C)=O)[C@@H](NC(=O)OC(C)(C)C)C1 [Compound 15, (3R,4R,5S)-ethyl 4-acetamido-5-(tert-butoxycarbonylamino)-3-(pentan-3-yloxy)cyclohex-1-enecarboxylate] | 144 to 145 |  |
| 7410 | CC(=O)N[C@H]1[C@@H]2OC(C)(C)O[C@@H]2C(C(=O)O)=C[C@H]1O [Compound 19, Sodium (3aR,6R,7R,7aS)-7-acetamido-6-hydroxy-2,2-dimethyl-3a,6,7,7a-tetrahydrobenzo[d][1,3]dioxole-4-carboxylate] |  |  |
|  | CCOC(=O)C1=C[C@@H](OC(CC)CC)[C@H](NC(C)=O)[C@@H](N)C1 [oseltamivir phosphate 1a (Tamiflu ®), oseltamivir phosphate, reference compound] |  | inhibition of LPS-induced sialidase activity (Neu1 sialidase; RAW-blue macrophage cells, dose dependent manner): completely inhibited |
| 12.7 | CC(=O)N[C@@H]1/C(=N/O)C=C(C(=O)O)[C@H]2OC(C)(C)O[C@H]21 [Compound 17, Sodium (3aR,7R,7aS,E)-7-acetamido-6-(hydroxyimino)-2,2-dimethyl-3a,6,7,7a-tetrahydrobenzo[d][1,3]dioxole-4-carboxylate] |  |  |
|  | CCOC(=O)C1=C[C@@H]2OC(C)=N[C@@H]2[C@@H](NC(=O)OC(C)(C)C)C1 [Compound 14, (3aR,4S,7aS)-ethyl 4-(tert-butoxycarbonylamino)-2-methyl-3a,4,5,7a-tetrahydrobenzo[d]oxazole-6-carboxylate] | 45 to 49 |  |
| 140 | CC(=O)N[C@@H]1C=C[C@@](O)(C(=O)O)[C@H]2OC(C)(C)O[C@@H]12 [Compound 16, Sodium (3aS,4S,7R,7aS)-7-acetamido-4-hydroxy-2,2-dimethyl-3a,4,7,7a-tetrahydrobenzo[d][1,3]dioxole-4-carboxylate] |  |  |
